From patent US7470708B2, “Acidic quinoline derivatives and their use for the prevention and/or treatment of hyperglycaemia-related pathologies” (Merck Patent Gesellschaft mit Beschraenkter Haftung, priority 2003, dated 2008)

Legend:
insulin secretion = assay: Insulin secretion test; assay type: cell-based; conditions: concentration of test compound 10^−5 M
Text: According to the method described in Endocrinology, 1992 vol. 130 (1) pp. 167-178
• C corresponds to the concentration of test compound according to the invention INS. SEC. corresponds to the percentage of insulin secretion.

N0STZ rats = assay: Antidiabetic activity in N0STZ rats (non-insulin-dependent diabetes induced by neonatal steptozotocin); assay type: in vivo; conditions: N0 STZ rat, oral, percentage change in glycaemia on D4 relative to D0
Method: Study of the Antidiabetic Activity in N0STZ Rats
The antidiabetic activity of the compounds of the formula (I) via the oral route, on an experimental model of non-insulin-dependent diabetes induced in rats by means of steptozotocin, was determined as follows.
The model of non-insulin-dependent diabetes is obtained in the rats by means of a neonatal injection (on the day of birth) of steptozotocin.
The diabetic rats used are eight weeks old. The animals are housed, from the day of birth to the day of the experiment, in an animal house at a regulated temperature of 21 to 22° C. and subjected to a fixed cycle of light (from 7 a.m. to 7 p.m.) and darkness (from 7p.m. to 7 a.m.). Their food consisted of a maintenance diet, and water and food were given “ad libitum”, with the exception of fasting two hours before the tests, during which period the food is removed (post-absorptive state).
The rats are treated orally for one (D1) or four (D4) days with the test product. Two hours after the final administration of the product and 30 minutes after anaesthetizing the animals with pentobarbital sodium (Nembutal®), a 300 μl blood sample is taken from the end of the tail.
By way of example, the results obtained are collated in the table below.

Row | melting point | SMILES | INS. SEC. (percentage of insulin secretion) (insulin secretion) | Percentage decrease in glycaemia at 200 mg/kg (N0STZ rats)
1 | > 250 °C | O=C(O)c1cc(OC/C=C/COc2cc(C(=O)O)nc3ccc(F)cc23)c2cc(F)ccc2n1 [Compound 5, 4-({(E)-4-[(2-Carboxy-6-fluoro-4-quinolinyl)oxy]-2-butenyl}oxy)-6-fluoro-2-quinolinecarboxylic acid] | – | −17%
2 | > 250 °C | CC(C)=CCOc1cc(C(=O)O)nc2ccc(F)cc12 [Compound 6, 6-Fluoro-4-(3-methylbut-2-enyloxy)quinoline-2-carboxylic acid] | – | −10%
3 | > 250 °C | N#Cc1ccccc1-c1ccc(COc2cc(C(=O)O)nc3ccc(F)cc23)cc1 [Compound 7, 4-(2′-Cyanobiphenyl-4-ylmethoxy)-6-fluoroquinoline-2-carboxylic acid] | – | –

The remaining lines, values behind:

Row | SMILES | melting point | INS. SEC. (percentage of insulin secretion) (insulin secretion) | Percentage decrease in glycaemia at 200 mg/kg (N0STZ rats)
4 | CCOc1cc(C(=O)O)nc2ccc(F)cc12 [Compound 1, 4-Ethoxy-6-fluoroquinoline-2-carboxylic acid] | 205 °C | 172% | −27%
5 | O=C(O)c1cc(OCc2ccc(Br)cc2F)c2cc(F)ccc2n1 [Compound 2, 4-(4-Bromo-2-fluorobenzyloxy)-6-fluoroquinoline-2-carboxylic acid] | > 250 °C | – | –
6 | O=C(O)c1cc(OCc2nc3ccccc3s2)c2cc(F)ccc2n1 [Compound 3, 4-(Benzothiazol-2-ylmethoxy)-6-fluoroquinoline-2-carboxylic acid] | > 250 °C | – | –
7 | COc1ccc2nc(C(=O)[O-])cc(OCc3ccc(Br)cc3F)c2c1.[Na+] [Compound 4, 4-(4-Bromo-2-fluorobenzyloxy)-6-methoxyquinoline-2-carboxylic acid, sodium salt] | > 250 °C | – | –
8 | COc1ccc(C(=O)COc2cc(C(=O)O)nc3ccc(F)cc23)cc1OC [Compound 63, 4-[2-(3,4-dimethoxyphenyl)-2-oxoethoxy]-6-fluoroquinoline-2-carboxylic acid] | – | 192% | –
9 | COC(=O)c1cc(OCCCCl)c2cc(F)ccc2n1 [Compound 64, methyl 4-(3-chloropropoxy)-6-fluoroquinoline-2-carboxylate] | – | 179% | –
10 | COC(=O)c1cc(OCC(C)CCl)c2cc(F)ccc2n1 (centres unmarked) [Compound 65, methyl 4-(3-chloro-2-methylpropoxy)-6-fluoroquinoline-2-carboxylate] | – | 161% | –
